Tests used:
smallflower flatsedge = test: Test B flood test smallflower flatsedge; type: in vivo, Cyperus difformis; details: for Plant response rating, S. Flatsedge (0 to 10 scale, 0 is no effect, 10 is complete control): Rate 62 g/ha
Procedure: (§1) At the same time, these crop and weed species were also treated with postemergence applications of test chemicals formulated in the same manner. Plants ranged in height from 2 to 18 cm (1- to 4-leaf stage) for postemergence treatments. Plant species in the flood test consisted of rice (Oryza sativa), smallflower flatsedge (Cyperus difformis), duck salad (Heteranthera limosa) and bamyardgrass (Echinochloa crus-galli) grown to the 2-leaf stage for testing. Treated plants and controls were maintained in a greenhouse for twelve to sixteen days, after which all species were compared to controls and visually evaluated. Plant response ratings, summarized in Table B, are based on a scale of 0 to 10 where 0 is no effect and 10 is complete control. A dash (−) response means no test result.

bamyardgrass = test: Test B flood test barnyardgrass; type: in vivo, Echinochloa crus-galli; details: for Plant response rating, Barnyardgrass (0 to 10 scale, 0 is no effect, 10 is complete control): Rate 62 g/ha
Procedure: as §1

rice = test: Test B flood test rice; type: in vivo, Oryza sativa; details: Pre-emergence
Procedure, shortened: (§2)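 Read-out is a visual response score from 0 (no effect) to 10 (complete control), assigned by comparison with untreated controls. Treatment was applied at the 2-leaf stage, and plants stayed in the greenhouse for twelve to sixteen days before scoring.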

duck salad = test: Test B flood test duck salad; type: in vivo, Heteranthera limosa; details: for Plant response rating, Ducksalad (0 to 10 scale, 0 is no effect, 10 is complete control): Rate 62 g/ha
Procedure, shortened: as §2

soybean = test: Test B pre/postemergence soybean; type: in vivo, Glycine max; details: Preemergence
Procedure, shortened: (§3)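 Herbicidal effect was estimated by eye on a ten-point control scale after plants spent twelve to sixteen days in a greenhouse following soil or foliar treatment. Foliar sprays targeted plants at one to four leaves; all doses were formulated in a non-phytotoxic solvent with surfactant.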

purple nutsedge = test: Test B pre/postemergence purple nutsedge; type: in vivo, Cyperus rotundus; details: Preemergence
Procedure, shortened: as §3

wild oat = test: Test B pre/postemergence wild oat; type: in vivo, Avena fatua; details: Preemergence
Procedure, shortened: as §3

crabgrass = test: Test B pre/postemergence crabgrass; type: in vivo, Digitaria sanguinalis; details: Preemergence
Procedure, shortened: as §3

bedstraw = test: Test B pre/postemergence bedstraw; type: in vivo, Galium aparine; details: Preemergence
Procedure, shortened: as §3

corn = test: Test B pre/postemergence corn; type: in vivo, Zea mays; details: Preemergence
Procedure, shortened: as §3

sugar beet = test: Test B pre/postemergence sugar beet; type: in vivo, Beta vulgaris; details: Preemergence
Procedure, shortened: as §3

surinam grass = test: Test B pre/postemergence surinam grass; type: in vivo, Brachiaria decumbens; details: Preemergence
Procedure, shortened: as §3

cocklebur = test: Test B pre/postemergence cocklebur; type: in vivo, Xanthium strumarium; details: Preemergence
Procedure, shortened: as §3

pigweed = test: Test B pre/postemergence pigweed; type: in vivo, Amaranthus retroflexus; details: Preemergence
Procedure, shortened: as §3

morningglory = test: Test B pre/postemergence morningglory; type: in vivo, Ipomoea hederacea; details: Preemergence
Procedure, shortened: as §3

velvetleaf = test: Test B pre/postemergence velvetleaf; type: in vivo, Abutilon theophrasti; details: Preemergence
Procedure, shortened: as §3

blackgrass = test: Test B pre/postemergence blackgrass; type: in vivo, Alopecurus myosuroides; details: Preemergence
Procedure, shortened: as §3

wheat = test: Test B pre/postemergence wheat; type: in vivo, Triticum aestivum; details: Preemergence
Procedure, shortened: as §3

giant foxtail = test: Test B pre/postemergence giant foxtail; type: in vivo, Setaria faberii; details: Preemergence
Procedure, shortened: as §3

rape = test: Test B pre/postemergence rape; type: in vivo, Brassica napus; details: Preemergence
Procedure, shortened: as §3

[1] = flood test species, Pre-emergence, visual evaluation after twelve to sixteen days
[2] = Rate 125 g/ha, Pre-emergence, flood test species, scale 0 to 10 where 0 is no effect and 10 is complete control
[3] = Rate 250 g/ha, Pre-emergence, flood-test species, scale 0 to 10, 0 is no effect, 10 is complete control
[4] = Rate 500 g/ha, Pre-emergence, flood test species, scale 0 to 10 (0 no effect, 10 complete control)
[5] = Rate 62 g/ha, scale of 0 to 10 where 0 is no effect and 10 is complete control
[6] = Rate 125 g/ha, scale of 0 to 10 where 0 is no effect and 10 is complete control
[7] = Rate 250 g/ha, scale 0 to 10 (0 no effect, 10 complete control)
[8] = Rate 500 g/ha, scale of 0 to 10 where 0 is no effect and 10 is complete control
[9] = Rate 125 g/ha, under heading Pre-emergence, flood test species, visual evaluation after twelve to sixteen days
[10] = Rate 250 g/ha, Pre-emergence (flood test species), scale 0 to 10, 0 is no effect, 10 is complete control
[11] = Rate 500 g/ha, Pre-emergence section of Table B, 0 to 10 scale (0 no effect, 10 complete control)

In the case of `Cc1cc(C)n(Cn2c(=O)on(C(=O)N(c3ccccc3)C(C)C)c2=O)n1` [Compound 346], the “Plant response rating, S. Flatsedge (0 to 10 scale, 0 is no effect, 10 is complete control)” value (smallflower flatsedge; [1]) is reported as 0, the “S. Flatsedge plant response rating” value (smallflower flatsedge; [2]) is reported as 0 and the “S. Flatsedge plant response rating” value (smallflower flatsedge; [3]) is reported as 0. For the same compound, the “S. Flatsedge plant response rating” value (smallflower flatsedge; [4]) was 0, the “Plant response rating, Barnyardgrass (0 to 10 scale, 0 is no effect, 10 is complete control)” value (bamyardgrass; [1]) was 0 and the “Barnyardgrass plant response rating” value (bamyardgrass; [2]) was 0. For the same compound, the “Barnyardgrass plant response rating” value (bamyardgrass; [3]) was 0, the “Barnyardgrass plant response rating” value (bamyardgrass; [4]) was 0 and the “Plant response rating, Rice (0 to 10 scale, 0 is no effect, 10 is complete control)” value (rice; Rate 62 g/ha, flood test species, visual evaluation after twelve to sixteen days) was 0. For the same compound, the “Rice plant response rating” value (rice; Rate 125 g/ha, flood test species, scale 0 to 10 where 0 is no effect and 10 is complete control) was 0, the “Rice plant response rating” value (rice; Rate 250 g/ha, flood-test species, scale 0 to 10, 0 is no effect, 10 is complete control) was 0 and the “Rice plant response rating” value (rice; Rate 500 g/ha, flood test species, scale 0 to 10 (0 no effect, 10 complete control)) was 0. The “Plant response rating, Ducksalad (0 to 10 scale, 0 is no effect, 10 is complete control)” value (duck salad; [1]) was 0, the “Ducksalad plant response rating” value (duck salad; [2]) was 0 and the “Ducksalad plant response rating” value (duck salad; [3]) was 0. For the same compound, the “Ducksalad plant response rating” value (duck salad; [4]) was 0.
For `CCCCCCn1c(=O)on(C(=O)N(c2ccc(F)cc2F)C(C)C)c1=O` [Compound 637], the “Soybean plant response rating” value (soybean; [5]) was 0, the “Soybean plant response rating” value (soybean; [6]) was 0 and the “Plant response rating, Soybean” value (soybean; [7]) was 0. The “Plant response rating, Soybean” value (soybean; [8]) was 0, the “Nutsedge plant response rating” value (purple nutsedge; [5]) was 0 and the “Nutsedge plant response rating” value (purple nutsedge; [6]) was 0. The “Plant response rating, Nutsedge” value (purple nutsedge; [7]) was 0, the “Plant response rating, Nutsedge” value (purple nutsedge; [8]) was 0 and the “Wild oats plant response rating” value (wild oat; [5]) was 0. For the same compound, the “Wild oats plant response rating” value (wild oat; [6]) was 0, the “Plant response rating, Wild oats” value (wild oat; [7]) was 0 and the “Plant response rating, Wild oats” value (wild oat; [8]) was 3. The “Plant response rating, S. Flatsedge (0 to 10 scale, 0 is no effect, 10 is complete control)” value (smallflower flatsedge; [1]) was 0, the “S. Flatsedge plant response rating (0 to 10 scale, 0 is no effect, 10 is complete control)” value (smallflower flatsedge; [9]) was 0 and the “S. Flatsedge plant response rating” value (smallflower flatsedge; [10]) was 0. The “S. Flatsedge plant response rating” value (smallflower flatsedge; [11]) was 0, the “Crabgrass plant response rating” value (crabgrass; [5]) was 9 and the “Crabgrass plant response rating” value (crabgrass; [6]) was 9. For the same compound, the “Plant response rating, Crabgrass” value (crabgrass; [7]) was 10, the “Plant response rating, Crabgrass” value (crabgrass; [8]) was 10 and the “Bedstraw plant response rating” value (bedstraw; [5]) was 0. For the same compound, the “Bedstraw plant response rating” value (bedstraw; [6]) was 0, the “Plant response rating, Bedstraw” value (bedstraw; [7]) was 2 and the “Plant response rating, Bedstraw” value (bedstraw; [8]) was 4. The “Corn plant response rating” value (corn; [5]) was 0, the “Corn plant response rating” value (corn; [6]) was 0 and the “Plant response rating, Corn” value (corn; [7]) was 0. The “Plant response rating, Corn” value (corn; [8]) was 0, the “Sugarbeets plant response rating” value (sugar beet; [5]) was 0 and the “Sugarbeets plant response rating” value (sugar beet; [6]) was 0. For the same compound, the “Plant response rating, Sugarbeets” value (sugar beet; [7]) was 3, the “Plant response rating, Sugarbeets” value (sugar beet; [8]) was 5 and the “B. signalgrass plant response rating” value (surinam grass; [5]) was 0. The “B. signalgrass plant response rating” value (surinam grass; [6]) was 3, the “Plant response rating, B. signalgrass” value (surinam grass; [7]) was 8 and the “Plant response rating, B. signalgrass” value (surinam grass; [8]) was 8. The “Cocklebur plant response rating” value (cocklebur; [5]) was 0, the “Cocklebur plant response rating” value (cocklebur; [6]) was 0 and the “Plant response rating, Cocklebur” value (cocklebur; [7]) was 0. For the same compound, the “Plant response rating, Cocklebur” value (cocklebur; [8]) was 0, the “Redroot pigweed plant response rating” value (pigweed; [5]) was 4 and the “Redroot pigweed plant response rating” value (pigweed; [6]) was 9. For the same compound, the “Plant response rating, Redroot pigweed” value (pigweed; [7]) was 7, the “Plant response rating, Redroot pigweed” value (pigweed; [8]) was 10 and the “Morningglory plant response rating” value (morningglory; [5]) was 0. The “Morningglory plant response rating” value (morningglory; [6]) was 0, the “Plant response rating, Morningglory” value (morningglory; [7]) was 0 and the “Plant response rating, Morningglory” value (morningglory; [8]) was 0. The “Plant response rating, Barnyardgrass (0 to 10 scale, 0 is no effect, 10 is complete control)” value (bamyardgrass; [1]) was 0, the “Barnyardgrass plant response rating (0 to 10 scale, 0 is no effect, 10 is complete control)” value (bamyardgrass; [9]) was 0 and the “Barnyardgrass plant response rating” value (bamyardgrass; [10]) was 0. For the same compound, the “Barnyardgrass plant response rating” value (bamyardgrass; [11]) was 0, the “Velvetleaf plant response rating” value (velvetleaf; [5]) was 0 and the “Velvetleaf plant response rating” value (velvetleaf; [6]) was 0. The “Plant response rating, Velvetleaf” value (velvetleaf; [7]) was 0, the “Plant response rating, Velvetleaf” value (velvetleaf; [8]) was 2 and the “Blackgrass plant response rating” value (blackgrass; [5]) was 2. The “Blackgrass plant response rating” value (blackgrass; [6]) was 3, the “Plant response rating, Blackgrass” value (blackgrass; [7]) was 9 and the “Plant response rating, Blackgrass” value (blackgrass; [8]) was 9. For the same compound, the “Plant response rating, Ducksalad (0 to 10 scale, 0 is no effect, 10 is complete control)” value (duck salad; [1]) was 0, the “Ducksalad plant response rating (0 to 10 scale, 0 is no effect, 10 is complete control)” value (duck salad; [9]) was 0 and the “Ducksalad plant response rating” value (duck salad; [10]) was 0. For the same compound, the “Ducksalad plant response rating” value (duck salad; [11]) was 0, the “Wheat plant response rating” value (wheat; [5]) was 0 and the “Wheat plant response rating” value (wheat; [6]) was 0. The “Plant response rating, Wheat” value (wheat; [7]) was 0, the “Plant response rating, Wheat” value (wheat; [8]) was 0 and the “Giant foxtail plant response rating” value (giant foxtail; [5]) was 9. For the same compound, the “Giant foxtail plant response rating” value (giant foxtail; [6]) was 10, the “Plant response rating, Giant foxtail” value (giant foxtail; [7]) was 10 and the “Plant response rating, Giant foxtail” value (giant foxtail; [8]) was 10. The “Rape plant response rating” value (rape; [5]) was 0, the “Rape plant response rating” value (rape; [6]) was 0 and the “Plant response rating, Rape” value (rape; [7]) was 2. For the same compound, the “Plant response rating, Rape” value (rape; [8]) was 3.

Reference: US6737383B1, “Herbicidal oxadiazolidines” (priority 1999, dated 2004)
